Here are results for 8 molecules from patent publication US6316644A, “Pilyethoxylated retinamide derivatives and process for preparing the same” (LG Chemical Ltd., priority 1998, dated 2001).

Where two headings read alike, the source gives them in different places.

One data set relates to skin photoaging. The settings on record: cited from earlier work.
The conditions of data set [1]: relative to retinoic acid; FASEB J., 10, 1014-1024, 1996; cited from earlier work.
The next data set has as its system human fibroblasts. As to the kind of experiment: Test for collagen synthesis (tritiated proline, CSP). As for the experimental part:
The same count of human fibroblasts was incubated in each well of 24-well plate for 24 hours and then the test sample was applied thereto at the concentration of 10^-4 to 10^-7 w %/ml. After 2 hours, tritiated proline (L-2,3-^3 H proline) was applied to the plate and then further incubated for 24 hours. The amount of collagen as newly synthesized and secreted by fibroblasts utilizing the culture medium was measured by calculating the amount of CPS (collagenous sensitive protein) on the basis of cpm (counting per minute) number of L-2,3-^3 H proline.

In a further data set the test system is auricular lymph node. The note with it: mouse, in vivo. As for the experimental part: Toxicol. 10(3); 173-180]. […] Each of the test sample was applied to both ears of Blab/c mouse in an amount of 50μl for 3 days and then auricular lymph node was isolated from mouse. Lymph node was micronized to monocellular state and then incubated for 24 hours with addition of radioisotope (^3 H-thymidine).

Another data set concerns skin. The settings on record: guinea pig, in vivo. As for the experimental part: Assoc. Food and Drug Officials, US. Appraisal of the safety of chemicals in Food, Drugs and Cosmetics, pp46-59, Texas State Dept. of Health, Austin, Tex. and 2 Federal Register (1973): Method of testing primary irritant substances 38(187): pp1500-1541]. Six kinds of the test solutions were prepared at the concentration of 0.3% by using o/w formulation or Lexol GT-865 as the carrier vehicle. First, hair was removed from the portion (dorsal skin of mouse) for applying the test solution and then the naked portion was adapted to the environmental circumstance for 24 hours in order to minimize the skin irritability. The test solution and gauze were applied to the established portion (1.5 cm×1.5 cm) for applying the test solution, which was then sealed with the solid thin film and fixed with the elastic bandage for 48 hours in order to inhibit the evaporation and loss of the test sample. After 2 and 24 hours from removal of the closed patch (i. e. 50 and 72 hours after patch application, respectively), the degree of irritation was determined.

For data set [2] the following is noted: pH 7.4.
Method: The tests for identification of pharmacological activities of the compound of formula (I) according to the present invention were conducted as follows. First, the test for percutaneous absorption was carried out by cutting off the dorsal skin from 8-weeks aged female mouse, applying the test sample (35 mM) to the skin and then analysing the percutaneous absorption of the test sample by means of an apparatus for measuring percutaneous absorption (Franz cell) and HPLC.
Specifically, the dorsal skin of 8-weeks aged female mouse (naked mouse) was cut off and then 35 ml solution of the test sample was applied in an amount of 250 μl to the skin having a size of 1.7cm^2. Using the apparatus for measuring percutaneous absorption (Franz cell), after 24 hours, the absorbed materials were extracted respectively from 7 ml of the receptor solution [50 mM PBS buffer solution (pH=7.4) containing 2% VolPO20 Polyethylene oleyl ether (HLB=16)] and the skin and then quantitatively analyzed by high pressure liquid chromatography (HPLC).
The conditions of data set [3]: lipid-soluble; cited from earlier work.
The test system of data set [4] is skin of 9-weeks aged naked female mouse. As to the kind of experiment: Test for organ incubation of skin (MTT assay). A general note: Tetrazolium assays rely on reduction of a dye to a coloured formazan, in cell work by metabolically active cells.
Method: (§1) The test for organ incubation of skin was carried out by MTT assay method using naked female mouse.
Data set [5] shares this test system.
Method: as §1
The subject of the next data set is V79-4 cells. As to the kind of experiment: Cytotoxicity test (MTT assay). The note with it: FIG. 2. In kind it is cell-based, Chinese hamster.
The mark [6] stands for this setting: 0.3% in Lexol GT-865, MTT assay.

Method for V79-4 cells: The cytotoxicity test was carried out by MTT assay method using V79-4 cells.

As to `COc1ccc(C(C)=O)c(OC(=O)/C=C(C)/C=C/C=C(C)/C=C/C2=C(C)CCCC2(C)C)c1` [2-(all-trans-retinoyloxy)-4-methoxyacetophenone], the “inhibition of skin cancer and photoaging” value in the data set on skin photoaging (U.S. Pat. No. 4,677,120) is “exhibits an effect of inhibiting skin cancer and photoaging”.
Consider `CC1=C(/C=C/C(C)=C/C=C/C(C)=C/C(=O)Nc2ccc(O)cc2)C(C)(C)CCC1` [N-(4-hydroxy-phenyl)retinamide (4-HPR), N-(4-hydroxy-phenyl)retinamide], for which the toxicity entry in data set [1] is given as “relatively reduced toxicity”.
With `CC1=C(/C=C/C(C)=C/C=C/C(C)=C/C(=O)O)C(C)(C)CCC1` [Retinoic acid, all-trans-retinoic acid], the activation at 1e-06 w %/ml in the data set on human fibroblasts (Homo sapiens, Fibroblast, read-out: increase in collagen synthesis) was ≤ 21.7%. In the data set with auricular lymph node, the “allergy induction in comparison to ethanol” value is “six times or more”. In the data set with skin, the “difference between the irritation degrees” value is reported as “no significant difference”. Moreover, the “Receptor solution (amount absorbed)” value in data set [2] turned out to be 11.40 nmol. Besides, the skin photoaging entry in the data set with skin photoaging (cream preparation applied to skin, JAMA 259, 1988) is “can be improved”. Besides, in [3], the skin absorption result is recorded as “low skin absorption”. The “irritation” value in data set [4] (0.3%) was “strong irritation”. Moreover, in data set [4] (setting [6]), the Degree of irritation is recorded as 0.11 and the Safety entry was “strong irritation”.
With `CCCCCCCCCCCCCCCC(=O)OC/C=C(C)/C=C/C=C(C)/C=C/C1=C(C)CCCC1(C)C` [Retinol palmitate, retinol palmitate], the “effect of increasing collagen synthesis” value in the data set on human fibroblasts (10^-4 to 10^-7 w %/ml, FIG. 1) is given as “does substantially not exhibit an effect of increasing collagen synthesis”. For the same molecule, the “allergy induction in comparison to ethanol” value in the data set on auricular lymph node is “six times or more”. The “difference between the irritation degrees” value in the data set with skin is on record as “no significant difference”. In [2], the “Receptor solution (amount absorbed)” value came to 0.48 nmol. Besides, in [5], the Degree of irritation came to 0.34, the Safety result is given as “minute irritation” and the “irritation” value is on record as “weak irritation”.
For the molecule `CC1=C(/C=C/C(C)=C/C=C/C(C)=C/CO)C(C)(C)CCC1` [Retinol, retinol], the “Receptor solution (amount absorbed)” value in [2] is 11.48 nmol.
As for `CCCCCCCCCCCCOS(=O)(=O)[O-].[Na+]` [Sodium lauryl sulfate], the Safety entry in [4] (control group, <0.05%) is recorded as “minute irritation”; in data set [4] (control group, <0.25%), “moderate irritation”; in data set [4] (control group, <0.5%) it was “strong irritation”.
With `CC1=C(/C=C/C(C)=C/C=C/C(C)=C/C(=O)O[C@@H]2O[C@H](C(=O)O)[C@@H](O)[C@H](O)[C@H]2O)C(C)(C)CCC1` [retinoyl β-glucuronide (RAG), retinoyl β-glucuronide], the toxicity result in [1] is “relatively reduced toxicity”.
On to “polyethoxylated retinamide of formula (I) (R=methyl, n=9.8)”, for which the “effect of increasing collagen synthesis at cytotoxic concentration” value with human fibroblasts (10^-3 w %/ml or more) is “does not exhibit any increasing effect”. The “increase in collagen synthesis (highest effect)” value in the data set with human fibroblasts (10^-7 w %/ml) is 33.8%. For the same molecule, in the data set on human fibroblasts (limiting concentration at which any toxicity is not caused), the “concentration at which effect of increasing collagen synthesis begins” value is reported as “below 10^-4 w %/ml”. In addition, the cytotoxicity entry in the data set on V79-4 cells (10^-3 w %/ml or more) is given as “exhibits gradually”; with V79-4 cells (10^-4 w %/ml and below) it was “only a weak toxicity”.
